Consider 17 compounds from PubChem BioAssay (NCI).

Test in all cases: NCI tumour cell line growth inhibition, 48 h
Test [1] has as its system IGROV1 ovarian.
Test [2] concerns UO-31 renal.
Test [3] concerns SW-620 colon.
The subject of test [4] is EKVX NSCLC.
In test [5] the test system is MALME-3M melanoma.
The subject of test [6] is K-562 leukemia.
In test [7] the test system is UACC-62 melanoma.
In test [8] the test system is HOP-62 NSCLC.
In test [9] the test system is CCRF-CEM leukemia.
In test [10] the test system is A498 renal.
In test [11] the test system is M14 melanoma.
Test [12] relates to HCC-2998 colon.
Test [13] has as its system A549 NSCLC.
The subject of test [14] is NCI-H460 lung.
The test system of test [15] is ACHN renal.
Test [16] has as its system HT29 colon.
The subject of test [17] is NCI-H226 lung.

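1) Cells in 96-well plates. 2) Compound, 48 h, 5 concentrations. 3) Linear interpolation between surrounding doses. 4) Unreached endpoint = highest concentration. TGI is the concentration that stops growth completely.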 Where only a bound is given, the exact number is not on record here.

Regarding `O=C(O)c1cc(-c2ccccc2O)nc2ccccc12`, the TGI in [1], in test [2], in [3], in test [4], in test [5] and in test [6] was above 100 µM each time. Also, the TGI in test [7], in test [8], in [9], in [10], in [11] and in test [12] was above 100 µM in each case. The TGI in [13], in [14], in [15] and in [16] was above 100 µM throughout.
Take `Cn1c(=O)c2c(nc(C[N+]3([O-])CCOCC3)n2C)n(C)c1=O`: the TGI in [1], in test [2], in test [3], in test [4], in test [5] and in test [6] was above 100 µM in each case. The TGI in test [7], in [8], in test [9], in [11], in test [12] and in test [13] was above 100 µM throughout. Further, the TGI in test [14], in [15], in test [16] and in test [17] was above 100 µM in each case.
On to `CCOC(OCC)c1ccc(/C=C/c2cc(OC)c(OC)c(OC)c2)cc1`, for which the TGI was above 100 µM in [1]; 45.7 µM in [2]; 56.3 µM in test [3]; above 100 µM in [4]; 43.8 µM in [5]; 39.8 µM in test [6]. The TGI in test [7] was found to be 33.2 µM; in test [8], 56.6 µM; in test [9], 37.3 µM; in test [10] it was 45.4 µM; in test [11], 31.9 µM; in [13] it was 95.2 µM. Also, the TGI in test [14] was 38.1 µM; in test [15] it was above 100 µM; in test [16], 33.6 µM; in test [17] it was 62.5 µM.
`NC1=NC2(O)c3ccccc3C(=O)C2(O)N1` (configuration not stated): the TGI in test [1], in test [3], in [4], in test [5], in test [6] and in test [7] was above 100 µM each time. Moreover, the TGI in test [8], in test [9], in test [10], in test [11], in test [13] and in test [14] was above 100 µM in each case. The TGI in test [15], in test [16] and in test [17] was above 100 µM throughout.
In the case of `COc1ccc(/C=C2\N=C(c3ccccc3)N(Nc3nnc(NN4C(=O)/C(=C/c5ccc(OC)cc5)N=C4c4ccccc4)c4ccccc34)C2=O)cc1`, the TGI in [1], in test [3], in [4], in test [6], in [7] and in [8] was above 100 µM each time. Moreover, the TGI in [9], in test [10], in test [11], in test [13], in [14] and in test [15] was above 100 µM in each case. Besides, the TGI in [16] and in [17] was above 100 µM each time.
Consider `CC(=O)OC1OC2C(NC(=O)OC(C)(C)C)C1CC2(OCc1ccccc1)OCc1ccccc1` (configuration not stated), for which the TGI is 90.3 µM in test [1]; 30.3 µM in [2]; above 100 µM in test [3]; above 100 µM in test [4]; 20.8 µM in test [5]; above 94.8 µM in test [6]. The TGI in test [7] was 42.2 µM; in test [8], 76.3 µM; in test [9] it was 82.9 µM; in test [10] it was above 82.9 µM; in test [11], 50.6 µM; in [12] it was 40.7 µM. The TGI in test [13] is above 100 µM; in test [14] it was above 100 µM; in test [15], 80 µM; in test [16] it was above 100 µM; in test [17], 56.5 µM.
Take `O=C1C(Cl)C(c2ccc(Cl)cc2)N1n1cnc2ccccc2c1=O` (configuration not stated): the TGI in [1] is above 100 µM; in test [2], above 100 µM; in test [3] it was above 100 µM; in [4], 82.4 µM; in [5], above 100 µM; in test [6], above 100 µM. Also, the TGI in [7], in test [8], in test [9], in test [11], in test [12] and in test [13] was above 100 µM in each case. Also, the TGI in [14], in [15], in [16] and in [17] was above 100 µM in each case.
In the case of `COc1cccc(/C(C=O)=C(\Cl)c2ccc(OC)c(OC)c2)c1`, the TGI in test [1] turned out to be 41.8 µM; in [2], 28.2 µM; in test [3], 29.6 µM; in test [4], 33.9 µM; in [5], 29 µM; in test [6], 46.2 µM. Also, the TGI stood at 17.4 µM in test [7]; 25.1 µM in test [8]; 33.5 µM in test [9]; 31.6 µM in test [11]; 29.8 µM in [12]; 46.8 µM in test [13]. The TGI amounted to 28 µM in [14], 26.4 µM in test [15], 27.5 µM in test [16] and 28.1 µM in test [17].
For `NC12CC3CC(C1)CC(Cl)(C3)C2`, the TGI in [1], in test [2], in test [3], in test [4], in [5] and in test [6] was above 100 µM each time. For the same compound, the TGI in test [7], in test [8], in test [9], in test [10], in test [11] and in [12] was above 100 µM each time. Also, the TGI in test [13], in [14], in [15] and in test [16] was above 100 µM in each case.
For the compound `COc1ccc(-c2onc(-c3c(C)cc(C)cc3C)c2C2=NCCCN2)cc1`, the TGI in test [1], in [2], in [3], in test [4], in test [5] and in [6] was above 100 µM throughout. Moreover, the TGI in test [7] was above 100 µM; in test [8], above 100 µM; in test [9], above 100 µM; in test [11], 40.8 µM; in test [12] it was above 100 µM; in [13] it was above 100 µM. For the same compound, the TGI in test [14], in [15], in test [16] and in [17] was above 100 µM throughout.
For the compound `CCOC(=O)c1nc2ccc(Cl)cc2c2c1CCO2`, the TGI in [1], in test [3], in test [4], in test [5], in test [6] and in test [7] was above 100 µM each time. Moreover, the TGI in [8], in test [9], in test [10], in [11], in test [12] and in [13] was above 100 µM in each case. Further, the TGI in [14], in test [15], in test [16] and in [17] was above 100 µM throughout.
`COC(=O)[C@H]1C=C[C@@H](C)n2c(=O)c3ccccc3c(=O)n21`: the TGI in [1], in [2], in test [3], in test [4], in test [5] and in test [6] was above 100 µM throughout. The TGI in test [8], in [9], in test [10], in [11], in test [12] and in [13] was above 100 µM in each case. In addition, the TGI in test [14], in [15], in [16] and in test [17] was above 100 µM each time.
Regarding `CC(=O)c1c(O)ccc2c1CC(CC=O)O2` (configuration not stated), the TGI in test [1], in test [2], in test [3], in test [5], in [6] and in test [7] was above 100 µM in each case. Also, the TGI in test [8], in test [9], in [11], in test [12], in test [13] and in test [14] was above 100 µM throughout. Moreover, the TGI in test [15], in test [16] and in [17] was above 100 µM in each case.
On to `NC(=O)C12C3C4C1C1C2C3C41C(N)=O` (configuration not stated), for which the TGI in test [1], in test [2], in [3], in test [4], in [6] and in test [7] was above 100 µM in each case. The TGI in test [8], in test [9], in [10], in [11], in test [12] and in [13] was above 100 µM in each case. Moreover, the TGI in test [14], in [15], in test [16] and in [17] was above 100 µM in each case.
Consider `CN(C)CCCSc1c2ccccc2nc2cc(NCC(=O)Nc3ccccc3-c3ccccc3NC(=O)CNc3ccc4c(SCCCN(C)C)c5ccccc5nc4c3)ccc12`, for which the TGI in test [1], in test [2], in [3], in test [4], in test [5] and in [6] was above 100 µM throughout. Further, the TGI was above 100 µM in test [7]; above 100 µM in test [8]; 92.7 µM in test [9]; above 100 µM in [10]; above 100 µM in [11]; above 100 µM in [12]. Further, the TGI in test [13], in test [14], in test [15], in [16] and in test [17] was above 100 µM each time.
As for `NC(=O)c1csc(CCCCCCc2nc(C(N)=O)cs2)n1`, the TGI in [1] was above 100 µM; in test [2], above 100 µM; in test [3] it was above 60.7 µM; in test [4] it was above 100 µM; in test [5], above 100 µM; in test [6], above 62.8 µM. The TGI in [7] was above 100 µM; in test [8] it was above 100 µM; in test [9], above 62.4 µM; in [10], above 100 µM; in test [11] it was above 100 µM; in test [12] it was above 100 µM. Moreover, the TGI in test [13] was above 100 µM; in [14], above 100 µM; in [15], above 100 µM; in test [16], above 59.8 µM; in test [17], above 100 µM.
As for `COC1=CC(C2c3cc4c(cc3[C@@H](Nc3ccc([N+](=O)[O-])cc3)C3COC(=O)[C@H]23)OCO4)=CC(=O)C1=O` (some centres not stated), the TGI in [1] was above 65.2 µM; in test [2], 20.7 µM; in [3] it was above 66.4 µM; in test [4] it was above 95.2 µM; in [5], 26.4 µM; in [6] it was above 96.6 µM. In addition, the TGI in test [7] is 8.96 µM; in [8] it was 2.47 µM; in test [9], above 25.3 µM; in test [10], 6.23 µM; in [11], above 37.7 µM; in test [12], 14.5 µM. In addition, the TGI in [13] is 10.6 µM; in [14] it was 7.08 µM; in [15], 4.43 µM; in test [16], 35.8 µM; in [17], 6.65 µM.
